Test results published in the NIST ThermoML archive (doi:10.1021/acs.jced.7b01125).
± gives the expanded uncertainty stated by the source.

Experiment: xn = mol fraction of the nth substance listed
Settings: Gas, Buoyancy - hydrostatic balance with magnetic suspension - one sinker

[HH] [hydrogen] + C
Settings | mass density [kg/m3]
250.05 K, 1999 kPa, x2 = 0.9 | 14.843 ± 0.047
250.05 K, 8002 kPa, x2 = 0.9499 | 76.259 ± 0.069
250.05 K, 10007 kPa, x2 = 0.9499 | 101.135 ± 0.074
250.05 K, 11012 kPa, x2 = 0.9499 | 113.948 ± 0.075
250.05 K, 12006 kPa, x2 = 0.9 | 113.812 ± 0.071
250.05 K, 12009 kPa, x2 = 0.9499 | 126.528 ± 0.076
250.05 K, 13012 kPa, x2 = 0.9 | 124.698 ± 0.072
250.05 K, 13015 kPa, x2 = 0.9499 | 138.84 ± 0.075
250.05 K, 14014 kPa, x2 = 0.9 | 135.178 ± 0.073
250.05 K, 14017 kPa, x2 = 0.9499 | 150.503 ± 0.073
250.05 K, 15015 kPa, x2 = 0.9 | 145.138 ± 0.073
250.05 K, 15015 kPa, x2 = 0.9499 | 161.379 ± 0.072
250.05 K, 16007 kPa, x2 = 0.9499 | 171.395 ± 0.07
250.05 K, 16018 kPa, x2 = 0.9 | 154.622 ± 0.072
250.05 K, 17011 kPa, x2 = 0.9 | 163.416 ± 0.072
250.05 K, 17022 kPa, x2 = 0.9499 | 180.83 ± 0.069
250.05 K, 18018 kPa, x2 = 0.9 | 171.725 ± 0.071
250.05 K, 18020 kPa, x2 = 0.9499 | 189.342 ± 0.068
250.05 K, 18962 kPa, x2 = 0.9499 | 196.737 ± 0.069
250.05 K, 19023 kPa, x2 = 0.9 | 179.463 ± 0.071
250.05 K, 19940 kPa, x2 = 0.9 | 186.044 ± 0.06
260.03 K, 1002 kPa, x2 = 0.4997 | 4.206 ± 0.032
260.03 K, 1977 kPa, x2 = 0.4997 | 8.33 ± 0.033
260.03 K, 3002 kPa, x2 = 0.4997 | 12.694 ± 0.035
260.03 K, 4002 kPa, x2 = 0.4997 | 16.974 ± 0.037
260.03 K, 5000 kPa, x2 = 0.4997 | 21.26 ± 0.04
260.03 K, 6003 kPa, x2 = 0.4997 | 25.579 ± 0.043
260.03 K, 7000 kPa, x2 = 0.4997 | 29.878 ± 0.047
260.03 K, 8000 kPa, x2 = 0.4997 | 34.185 ± 0.052
260.03 K, 9003 kPa, x2 = 0.4997 | 38.489 ± 0.057
260.03 K, 10005 kPa, x2 = 0.4997 | 42.775 ± 0.063
260.03 K, 11002 kPa, x2 = 0.4997 | 47.008 ± 0.069
260.03 K, 12008 kPa, x2 = 0.4997 | 51.246 ± 0.075
260.03 K, 13002 kPa, x2 = 0.4997 | 55.387 ± 0.082
260.03 K, 14009 kPa, x2 = 0.4997 | 59.544 ± 0.088
260.03 K, 15005 kPa, x2 = 0.4997 | 63.583 ± 0.094
260.03 K, 16009 kPa, x2 = 0.4997 | 67.621 ± 0.1
260.03 K, 17009 kPa, x2 = 0.4997 | 71.57 ± 0.1
260.03 K, 18006 kPa, x2 = 0.4997 | 75.418 ± 0.11
260.03 K, 19113 kPa, x2 = 0.4997 | 79.651 ± 0.11
260.04 K, 999 kPa, x2 = 0.9499 | 7.267 ± 0.045
260.04 K, 1000 kPa, x2 = 0.9 | 6.927 ± 0.043
260.04 K, 1999 kPa, x2 = 0.9499 | 14.926 ± 0.047
260.04 K, 2000 kPa, x2 = 0.9 | 14.169 ± 0.045
260.04 K, 2999 kPa, x2 = 0.9499 | 23.006 ± 0.049
260.04 K, 3001 kPa, x2 = 0.9 | 21.762 ± 0.047
260.04 K, 3999 kPa, x2 = 0.9499 | 31.515 ± 0.052
260.04 K, 5000 kPa, x2 = 0.9499 | 40.497 ± 0.054
260.04 K, 5999 kPa, x2 = 0.9499 | 49.941 ± 0.057
260.04 K, 6001 kPa, x2 = 0.9 | 46.626 ± 0.054
260.04 K, 7001 kPa, x2 = 0.9 | 55.622 ± 0.056
260.04 K, 7002 kPa, x2 = 0.9499 | 59.886 ± 0.06
260.04 K, 8003 kPa, x2 = 0.9 | 64.951 ± 0.058
260.04 K, 8003 kPa, x2 = 0.9499 | 70.258 ± 0.062
260.04 K, 9004 kPa, x2 = 0.9 | 74.538 ± 0.06
260.04 K, 9006 kPa, x2 = 0.9499 | 81.038 ± 0.064
260.04 K, 10006 kPa, x2 = 0.9 | 84.334 ± 0.062
260.04 K, 10006 kPa, x2 = 0.9499 | 92.073 ± 0.067
260.04 K, 11008 kPa, x2 = 0.9 | 94.232 ± 0.064
260.04 K, 11011 kPa, x2 = 0.9499 | 103.316 ± 0.068
260.04 K, 12013 kPa, x2 = 0.9499 | 114.514 ± 0.069
260.04 K, 13017 kPa, x2 = 0.9499 | 125.55 ± 0.069
260.04 K, 14016 kPa, x2 = 0.9499 | 136.214 ± 0.069
260.04 K, 15018 kPa, x2 = 0.9499 | 146.448 ± 0.068
260.04 K, 16023 kPa, x2 = 0.9499 | 156.169 ± 0.067
260.04 K, 17019 kPa, x2 = 0.9499 | 165.22 ± 0.066
260.04 K, 18026 kPa, x2 = 0.9499 | 173.779 ± 0.066
260.04 K, 18756 kPa, x2 = 0.9499 | 179.616 ± 0.069
260.05 K, 4000 kPa, x2 = 0.9 | 29.682 ± 0.049
260.05 K, 5000 kPa, x2 = 0.9 | 37.974 ± 0.051
260.05 K, 12009 kPa, x2 = 0.9 | 104.112 ± 0.065
260.05 K, 13009 kPa, x2 = 0.9 | 113.883 ± 0.066
260.05 K, 14013 kPa, x2 = 0.9 | 123.483 ± 0.066
260.05 K, 15017 kPa, x2 = 0.9 | 132.774 ± 0.067
260.05 K, 16016 kPa, x2 = 0.9 | 141.654 ± 0.067
260.05 K, 17013 kPa, x2 = 0.9 | 150.096 ± 0.068
260.05 K, 17614 kPa, x2 = 0.9 | 154.98 ± 0.072
275 K, 1001 kPa, x2 = 0.4997 | 3.964 ± 0.031
275 K, 2001 kPa, x2 = 0.4997 | 7.947 ± 0.032
275 K, 3002 kPa, x2 = 0.4997 | 11.95 ± 0.034
275 K, 4001 kPa, x2 = 0.4997 | 15.957 ± 0.035
275 K, 5001 kPa, x2 = 0.4997 | 19.969 ± 0.037
275 K, 6001 kPa, x2 = 0.4997 | 23.987 ± 0.041
275 K, 7001 kPa, x2 = 0.4997 | 27.997 ± 0.044
275 K, 8001 kPa, x2 = 0.4997 | 31.996 ± 0.048
275 K, 9003 kPa, x2 = 0.4997 | 35.989 ± 0.052
275 K, 10000 kPa, x2 = 0.4997 | 39.943 ± 0.057
275 K, 12001 kPa, x2 = 0.4997 | 47.79 ± 0.066
275 K, 13004 kPa, x2 = 0.4997 | 51.668 ± 0.071
275.01 K, 999 kPa, x2 = 0.9499 | 6.842 ± 0.043
275.01 K, 1000 kPa, x2 = 0.9 | 6.522 ± 0.041
275.01 K, 1999 kPa, x2 = 0.9499 | 13.98 ± 0.044
275.01 K, 2001 kPa, x2 = 0.9 | 13.293 ± 0.043
275.01 K, 2997 kPa, x2 = 0.9499 | 21.412 ± 0.046
275.01 K, 3001 kPa, x2 = 0.9 | 20.304 ± 0.044
275.01 K, 4001 kPa, x2 = 0.9 | 27.568 ± 0.046
275.01 K, 4002 kPa, x2 = 0.9499 | 29.206 ± 0.048
275.01 K, 5002 kPa, x2 = 0.9499 | 37.281 ± 0.05
